Assay results reported in patent US20250333407A1, “Compounds and Their Use for Treatment of Hemoglobinopathies” (Bristol-Myers Squibb Company, priority 2024, published 2025).

Legend:
Type in all cases: cell-based
[1] = tested on: HbF; assay: HbF HiBiT induction assay in HUDEP-2 cells; conditions: HUDEP-2 cells with HiBiT tag in HBG1/2, 72 hours of treatment; area under the dose response curve, higher AUC = greater HbF induction
Procedure, shortened: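 HUDEP-2 cells carrying a HiBiT tag on HBG1/2 were exposed to compounds for 72 h at 37° C, 5% CO2, in IMDM with EPO, hSCF, DOX, transferrin, insulin, heparin and 5% human plasma. HiBiT luminescence was read after lytic detection; HbF induction is expressed as dose-response AUC, alongside EC50 and Ymax.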

[2] = target: T1, WIZ (Homo sapiens, UniProt O95785+Q96SW2); assay: HUDEP-2 WIZ HiBiT degradation assay; conditions: HiBiT-tagged WIZ degradation in HUDEP-2 cells, 24 hours of treatment; read-out: WIZ EC50
T1 construct: HUDEP-2 cells engineered to express a HiBiT tag in either the WIZ (Widely interspaced zinc finger) or ZBTB7A
T1 sequence (O95785 whole entry): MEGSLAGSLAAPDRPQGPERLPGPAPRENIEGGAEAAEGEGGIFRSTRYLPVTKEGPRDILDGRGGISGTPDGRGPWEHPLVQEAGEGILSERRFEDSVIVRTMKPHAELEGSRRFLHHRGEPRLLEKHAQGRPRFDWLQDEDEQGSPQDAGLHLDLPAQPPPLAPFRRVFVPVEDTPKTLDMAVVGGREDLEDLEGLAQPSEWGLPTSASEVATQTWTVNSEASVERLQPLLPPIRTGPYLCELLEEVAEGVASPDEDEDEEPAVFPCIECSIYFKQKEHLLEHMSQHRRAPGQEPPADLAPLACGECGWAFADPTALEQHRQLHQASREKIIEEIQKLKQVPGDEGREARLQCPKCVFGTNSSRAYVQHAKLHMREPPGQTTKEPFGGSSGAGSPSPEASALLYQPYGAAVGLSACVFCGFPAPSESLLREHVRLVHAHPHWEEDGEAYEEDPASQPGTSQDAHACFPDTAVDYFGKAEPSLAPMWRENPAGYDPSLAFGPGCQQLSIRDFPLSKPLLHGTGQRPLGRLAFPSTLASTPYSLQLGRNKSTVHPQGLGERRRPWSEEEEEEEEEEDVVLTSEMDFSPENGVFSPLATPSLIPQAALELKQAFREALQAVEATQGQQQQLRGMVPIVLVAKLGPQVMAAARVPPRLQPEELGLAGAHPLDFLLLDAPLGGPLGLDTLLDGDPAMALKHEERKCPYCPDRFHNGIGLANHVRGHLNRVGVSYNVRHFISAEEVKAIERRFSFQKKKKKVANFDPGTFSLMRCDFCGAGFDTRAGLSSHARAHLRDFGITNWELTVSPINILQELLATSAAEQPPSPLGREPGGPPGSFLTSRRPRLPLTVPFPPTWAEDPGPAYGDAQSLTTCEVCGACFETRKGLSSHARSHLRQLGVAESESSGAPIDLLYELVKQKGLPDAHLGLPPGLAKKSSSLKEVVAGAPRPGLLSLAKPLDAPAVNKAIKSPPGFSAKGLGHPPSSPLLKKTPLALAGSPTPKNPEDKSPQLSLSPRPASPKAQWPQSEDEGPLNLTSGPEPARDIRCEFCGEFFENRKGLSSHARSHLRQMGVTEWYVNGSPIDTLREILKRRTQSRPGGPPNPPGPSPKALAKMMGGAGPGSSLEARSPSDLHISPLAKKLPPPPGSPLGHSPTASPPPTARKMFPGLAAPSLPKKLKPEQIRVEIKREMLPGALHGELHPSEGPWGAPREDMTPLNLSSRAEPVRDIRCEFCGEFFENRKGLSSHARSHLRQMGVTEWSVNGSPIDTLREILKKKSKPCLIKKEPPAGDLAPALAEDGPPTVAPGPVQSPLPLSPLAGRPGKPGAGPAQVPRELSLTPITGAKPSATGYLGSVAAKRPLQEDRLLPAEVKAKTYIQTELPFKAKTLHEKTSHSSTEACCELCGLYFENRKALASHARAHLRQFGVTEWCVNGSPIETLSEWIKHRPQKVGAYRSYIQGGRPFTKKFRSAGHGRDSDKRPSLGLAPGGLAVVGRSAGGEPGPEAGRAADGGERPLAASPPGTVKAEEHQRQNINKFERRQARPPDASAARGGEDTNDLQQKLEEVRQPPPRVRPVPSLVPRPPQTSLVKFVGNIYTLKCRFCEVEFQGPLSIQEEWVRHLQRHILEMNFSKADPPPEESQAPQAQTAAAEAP
T1 sequence (Q96SW2 whole entry): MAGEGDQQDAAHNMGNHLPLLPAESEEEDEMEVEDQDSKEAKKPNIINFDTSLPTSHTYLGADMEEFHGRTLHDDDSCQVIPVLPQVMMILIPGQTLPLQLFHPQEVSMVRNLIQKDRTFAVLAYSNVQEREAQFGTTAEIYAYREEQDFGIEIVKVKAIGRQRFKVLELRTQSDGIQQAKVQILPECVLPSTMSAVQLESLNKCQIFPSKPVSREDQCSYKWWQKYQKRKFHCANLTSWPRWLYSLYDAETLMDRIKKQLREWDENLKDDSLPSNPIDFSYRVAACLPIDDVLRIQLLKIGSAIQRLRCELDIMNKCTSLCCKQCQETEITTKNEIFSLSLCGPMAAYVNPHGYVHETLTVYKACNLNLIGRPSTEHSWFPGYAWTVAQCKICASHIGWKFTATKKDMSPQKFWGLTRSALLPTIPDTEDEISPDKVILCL
T1 sequence (Q16531 whole entry partner): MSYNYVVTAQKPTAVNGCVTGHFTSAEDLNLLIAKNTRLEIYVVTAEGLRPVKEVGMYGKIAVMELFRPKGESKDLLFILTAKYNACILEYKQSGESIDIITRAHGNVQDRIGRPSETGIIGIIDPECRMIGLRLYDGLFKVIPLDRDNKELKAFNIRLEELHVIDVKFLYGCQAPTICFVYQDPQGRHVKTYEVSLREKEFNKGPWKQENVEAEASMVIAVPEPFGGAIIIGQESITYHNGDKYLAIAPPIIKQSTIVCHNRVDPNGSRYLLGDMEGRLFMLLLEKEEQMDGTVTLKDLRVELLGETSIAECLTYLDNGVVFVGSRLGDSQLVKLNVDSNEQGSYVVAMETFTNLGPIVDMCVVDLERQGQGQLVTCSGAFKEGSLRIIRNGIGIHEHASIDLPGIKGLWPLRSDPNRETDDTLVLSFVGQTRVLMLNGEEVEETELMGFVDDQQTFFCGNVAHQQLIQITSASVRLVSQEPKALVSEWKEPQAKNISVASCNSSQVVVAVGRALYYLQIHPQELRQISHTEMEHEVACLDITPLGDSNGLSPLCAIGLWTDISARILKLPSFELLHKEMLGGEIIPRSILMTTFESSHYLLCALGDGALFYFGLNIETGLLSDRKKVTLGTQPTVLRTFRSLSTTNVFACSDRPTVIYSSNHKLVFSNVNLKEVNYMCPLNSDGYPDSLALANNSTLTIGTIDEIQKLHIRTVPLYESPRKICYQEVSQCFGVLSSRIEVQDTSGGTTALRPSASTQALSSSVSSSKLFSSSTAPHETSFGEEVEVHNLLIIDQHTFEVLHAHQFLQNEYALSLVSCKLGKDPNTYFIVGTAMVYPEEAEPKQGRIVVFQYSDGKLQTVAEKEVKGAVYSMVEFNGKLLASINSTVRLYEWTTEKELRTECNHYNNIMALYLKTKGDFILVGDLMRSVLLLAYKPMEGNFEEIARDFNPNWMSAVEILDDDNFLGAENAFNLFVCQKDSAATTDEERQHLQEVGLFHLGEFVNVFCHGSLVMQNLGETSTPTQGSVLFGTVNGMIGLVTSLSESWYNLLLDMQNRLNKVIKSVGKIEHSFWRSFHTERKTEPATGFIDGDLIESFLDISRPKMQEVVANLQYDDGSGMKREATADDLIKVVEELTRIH
Procedure, shortened: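 HiBiT-tagged HUDEP-2 cells at 1.0×10^6 cells/ml in SFEM II with SCF, EPO, dexamethasone and doxycycline, treated 24 h at 37 °C with a 10-point series ([…]). Luminescence after HiBiT lytic detection, normalized to DMSO; EC50 and Y-min from fitted curves.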

[3] = target: T2, ZBTB7A (Homo sapiens, UniProt O95365+Q96SW2); assay: HUDEP-2 ZBTB7A HiBiT degradation assay; conditions: HiBiT-tagged ZBTB7A degradation in HUDEP-2 cells, 24 hours of treatment; read-out: ZBTB7A EC50
T2 construct: HUDEP-2 cells engineered to express a HiBiT tag in either the WIZ (Widely interspaced zinc finger) or ZBTB7A
T2 sequence (O95365 whole entry): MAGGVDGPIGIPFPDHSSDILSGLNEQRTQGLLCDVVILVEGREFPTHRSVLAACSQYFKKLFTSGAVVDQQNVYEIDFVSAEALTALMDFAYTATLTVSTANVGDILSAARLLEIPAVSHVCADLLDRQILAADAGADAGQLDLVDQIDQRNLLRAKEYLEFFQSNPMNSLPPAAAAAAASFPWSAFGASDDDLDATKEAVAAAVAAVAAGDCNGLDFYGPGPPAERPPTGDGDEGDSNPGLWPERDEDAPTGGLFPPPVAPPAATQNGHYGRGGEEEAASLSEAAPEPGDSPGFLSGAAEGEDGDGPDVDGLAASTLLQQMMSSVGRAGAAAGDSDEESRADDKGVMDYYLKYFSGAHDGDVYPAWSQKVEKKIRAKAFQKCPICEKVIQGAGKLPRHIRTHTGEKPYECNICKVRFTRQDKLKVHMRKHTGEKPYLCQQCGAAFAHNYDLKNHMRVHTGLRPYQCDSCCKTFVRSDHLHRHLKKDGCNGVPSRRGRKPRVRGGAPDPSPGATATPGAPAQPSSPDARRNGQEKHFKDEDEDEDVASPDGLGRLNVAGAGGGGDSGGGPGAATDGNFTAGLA
T2 sequence (Q96SW2 whole entry): as the sequence (Q96SW2 whole entry) above
T2 sequence (Q16531 whole entry partner): as the sequence (Q16531 whole entry partner) above
Procedure, shortened: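 HiBiT-tagged HUDEP-2 cells were pre-cultured 48 h in IMDM with EPO, SCF, doxycycline and 5% human plasma, then exposed to compounds at 1.0×10^6 cells/ml for 24 h at 37 °C. Nano-Glo HiBiT lytic luminescence, normalised to DMSO over 10 concentrations, gave EC50 and Y-min.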

| SMILES | HBF AUC [1] | DC50 [2] | DC50 [3] |
| --- | --- | --- | --- |
| Cc1cc(-c2cc3c(cc2Nc2cccc4c2C(=O)N([C@H]2CCC(=O)NC2=O)C4=O)N(C)C(=O)O[C@H]3C)c(F)cn1 [Compound 73, 2-((S)-2,6-dioxopiperidin-3-yl)-4-(((S)-6-(5-fluoro-2-methylpyridin-4-yl)-1,4-dimethyl-2-oxo-1,4-dihydro-2H-benzo[d][1,3]oxazin-7-yl)amino)isoindoline-1,3-dione] | ++ (++ = 100 ≤ AUC < 150) | 0.012 µM | 0.011 µM |
| Cc1cc(-c2cc3c(cc2Nc2cccc4c2C(=O)N([C@H]2CCC(=O)NC2=O)C4=O)N(C)C(=O)O[C@@H]3C)c(F)cn1 [Compound 74, 2-((S)-2,6-dioxopiperidin-3-yl)-4-(((R)-6-(5-fluoro-2-methylpyridin-4-yl)-1,4-dimethyl-2-oxo-1,4-dihydro-2H-benzo[d][1,3]oxazin-7-yl)amino)isoindoline-1,3-dione] | ++ (++ = 100 ≤ AUC < 150) | 0.011 µM | 0.01 µM |
| CC(=O)N1CCC(c2cc3c(cc2Nc2cccc4c2C(=O)N([C@H]2CCC(=O)NC2=O)C4=O)N(C)C(=O)OC3C)CC1 (stereo partly drawn) [Compound 75, 4-((6-(1-acetylpiperidin-4-yl)-1,4-dimethyl-2-oxo-1,4-dihydro-2H-benzo[d][1,3]oxazin-7-yl)amino)-2-((S)-2,6-dioxopiperidin-3-yl)isoindoline-1,3-dione] | ++ (++ = 100 ≤ AUC < 150) | 0.037 µM | 0.075 µM |
| COc1cc(-c2c(Nc3cccc4c3C(=O)N([C@H]3CCC(=O)NC3=O)C4=O)cc3c(c2F)OCC(=O)N3C)c(F)cn1 [Compound 76, 2-((S)-2,6-dioxopiperidin-3-yl)-4-((8-fluoro-7-(5-fluoro-2-methoxypyridin-4-yl)-4-methyl-3-oxo-3,4-dihydro-2H-benzo[b][1,4]oxazin-6-yl)amino)isoindoline-1,3-dione] | + (+ = 15 ≤ AUC < 100) | 0.022 µM | 0.065 µM |
| Cc1cc(-c2c(Nc3cccc4c3C(=O)N(C3CCC(=O)NC3=O)C4=O)cc3c(c2F)OCC(=O)N3C)cc(C(F)F)n1 (stereo not drawn) [Compound 77, 4-((7-(2-(difluoromethyl)-6-methylpyridin-4-yl)-8-fluoro-4-methyl-3-oxo-3,4-dihydro-2H-benzo[b][1,4]oxazin-6-yl)amino)-2-(2,6-dioxopiperidin-3-yl)isoindoline-1,3-dione] | + (+ = 15 ≤ AUC < 100) | 0.112 µM | 0.102 µM |
| Cc1cc(-c2c(Nc3cccc4c3C(=O)N(C3CCC(=O)NC3=O)C4=O)cc3c(c2F)OCC(=O)N3C)cc(C(F)F)n1 (stereo not drawn) [Compound 78, 4-((7-(2-(difluoromethyl)-6-methylpyridin-4-yl)-8-fluoro-4-methyl-3-oxo-3,4-dihydro-2H-benzo[b][1,4]oxazin-6-yl)amino)-2-(2,6-dioxopiperidin-3-yl)isoindoline-1,3-dione] | ++ (++ = 100 ≤ AUC < 150) | 0.076 µM | 0.07 µM |
| Cc1cc(-c2c(Nc3cccc4c3C(=O)N([C@H]3CCC(=O)NC3=O)C4=O)cc3c(c2F)C(C)OC(=O)N3C)ccn1 (stereo partly drawn) [Compound 79, 2-((S)-2,6-dioxopiperidin-3-yl)-4-((5-fluoro-1,4-dimethyl-6-(2-methylpyridin-4-yl)-2-oxo-1,4-dihydro-2H-benzo[d][1,3]oxazin-7-yl)amino)isoindoline-1,3-dione] | + (+ = 15 ≤ AUC < 100) | 0.027 µM | 0.028 µM |
| Cc1cc(-c2c(Nc3cccc4c3C(=O)N(C3CCC(=O)NC3=O)C4=O)cc3c(c2F)OCC(=O)N3C)ccn1 (stereo not drawn) [Compound 80, 2-(2,6-dioxopiperidin-3-yl)-4-((8-fluoro-4-methyl-7-(2-methylpyridin-4-yl)-3-oxo-3,4-dihydro-2H-benzo[b][1,4]oxazin-6-yl)amino)isoindoline-1,3-dione] | ++ (++ = 100 ≤ AUC < 150) | 0.029 µM | 0.038 µM |
| Cc1cc(-c2c(Nc3cccc4c3C(=O)N(C3CCC(=O)NC3=O)C4=O)cc3c(c2F)OCC(=O)N3C)ccn1 (stereo not drawn) [Compound 81, 2-(2,6-dioxopiperidin-3-yl)-4-((8-fluoro-4-methyl-7-(2-methylpyridin-4-yl)-3-oxo-3,4-dihydro-2H-benzo[b][1,4]oxazin-6-yl)amino)isoindoline-1,3-dione] | ++ (++ = 100 ≤ AUC < 150) | 0.024 µM | 0.028 µM |
| Cc1cc(-c2c(Nc3cccc4c3C(=O)N([C@H]3CCC(=O)NC3=O)C4=O)cc3c(c2F)[C@@H](C)OC(=O)N3C)c(F)cn1 [Compound 82, 2-((S)-2,6-dioxopiperidin-3-yl)-4-(((4R)-5-fluoro-6-(5-fluoro-2-methylpyridin-4-yl)-1,4-dimethyl-2-oxo-1,4-dihydro-2H-benzo[d][1,3]oxazin-7-yl)amino)isoindoline-1,3-dione] | ++ (++ = 100 ≤ AUC < 150) | 0.054 µM | 0.019 µM |
| Cc1cc(-c2cc3c(cc2Nc2cccc4c2C(=O)N(C2CCC(=O)NC2=O)C4=O)N(C)C(=O)CC3(C)C)ccn1 (stereo not drawn) [Compound 83, 2-(2,6-dioxopiperidin-3-yl)-4-((1,4,4-trimethyl-6-(2-methylpyridin-4-yl)-2-oxo-1,2,3,4-tetrahydroquinolin-7-yl)amino)isoindoline-1,3-dione] | + (+ = 15 ≤ AUC < 100) | 0.008 µM | 0.013 µM |
| CC(=O)N1CCC(c2cc3c(cc2Nc2cccc4c2C(=O)N(C2CCC(=O)NC2=O)C4=O)N(C)C(=O)CC3)CC1 (stereo not drawn) [Compound 84, 4-((6-(1-acetylpiperidin-4-yl)-1-methyl-2-oxo-1,2,3,4-tetrahydroquinolin-7-yl)amino)-2-(2,6-dioxopiperidin-3-yl)isoindoline-1,3-dione] | +++ (+++ = AUC ≥ 150) | 0.007 µM | 0.019 µM |
| Cc1cc(-c2cc3c(cc2Nc2cccc4c2C(=O)N([C@H]2CCC(=O)NC2=O)C4=O)N(C)C(=O)[C@@H](C)C3)ccn1 [Compound 86, 4-(((S)-1,3-dimethyl-6-(2-methylpyridin-4-yl)-2-oxo-1,2,3,4-tetrahydroquinolin-7-yl)amino)-2-((S)-2,6-dioxopiperidin-3-yl)isoindoline-1,3-dione] | + (+ = 15 ≤ AUC < 100) | 0.009 µM | 0.048 µM |
| Cc1cc(-c2cc3c(cc2Nc2cccc4c2C(=O)N([C@H]2CCC(=O)NC2=O)C4=O)N(C)C(=O)[C@H](C)C3)ccn1 [Compound 87, 4-(((R)-1,3-dimethyl-6-(2-methylpyridin-4-yl)-2-oxo-1,2,3,4-tetrahydroquinolin-7-yl)amino)-2-((S)-2,6-dioxopiperidin-3-yl)isoindoline-1,3-dione] | + (+ = 15 ≤ AUC < 100) | 0.012 µM | 0.016 µM |
| Cc1cc(-c2cc3c(cc2Nc2cccc4c2C(=O)N([C@H]2CCC(=O)NC2=O)C4=O)N(C2CC2)C(=O)CC3)ccn1 [Compound 88, (S)-4-((1-cyclopropyl-6-(2-methylpyridin-4-yl)-2-oxo-1,2,3,4-tetrahydroquinolin-7-yl)amino)-2-(2,6-dioxopiperidin-3-yl)isoindoline-1,3-dione] | + (+ = 15 ≤ AUC < 100) | 0.008 µM | 0.06 µM |
| CCN1C(=O)CCc2cc(-c3ccnc(C)c3)c(Nc3cccc4c3C(=O)N([C@H]3CCC(=O)NC3=O)C4=O)cc21 [Compound 89, (S)-2-(2,6-dioxopiperidin-3-yl)-4-((1-ethyl-6-(2-methylpyridin-4-yl)-2-oxo-1,2,3,4-tetrahydroquinolin-7-yl)amino)isoindoline-1,3-dione] | + (+ = 15 ≤ AUC < 100) | 0.014 µM | 0.013 µM |
| Cc1cc(-c2c(Nc3cccc4c3C(=O)N([C@H]3CCC(=O)NC3=O)C4=O)cc3c(c2F)CCC(=O)N3C)ccn1 [Compound 90, (S)-2-(2,6-dioxopiperidin-3-yl)-4-((5-fluoro-1-methyl-6-(2-methylpyridin-4-yl)-2-oxo-1,2,3,4-tetrahydroquinolin-7-yl)amino)isoindoline-1,3-dione] | ++ (++ = 100 ≤ AUC < 150) | 0.014 µM | 0.024 µM |
| CO[C@H]1CC[C@H](c2cc3c(cc2Nc2cccc4c2C(=O)N([C@H]2CCC(=O)NC2=O)C4=O)N(C)C(=O)CC3)CC1 [Compound 91, 2-((S)-2,6-dioxopiperidin-3-yl)-4-((6-((1r,4S)-4-methoxycyclohexyl)-1-methyl-2-oxo-1,2,3,4-tetrahydroquinolin-7-yl)amino)isoindoline-1,3-dione] | ++ (++ = 100 ≤ AUC < 150) | 0.004 µM | 0.004 µM |
| CO[C@H]1CC[C@@H](c2cc3c(cc2Nc2cccc4c2C(=O)N(C2CCC(=O)NC2=O)C4=O)N(C)C(=O)CC3)CC1 (stereo partly drawn) [Compound 92, 2-(2,6-dioxopiperidin-3-yl)-4-((6-((1s,4s)-4-methoxycyclohexyl)-1-methyl-2-oxo-1,2,3,4-tetrahydroquinolin-7-yl)amino)isoindoline-1,3-dione] | + (+ = 15 ≤ AUC < 100) | 0.002 µM | 0.003 µM |
